# Experimental data: patent US9120795B2, “Crystalline form of a β-lactamase inhibitor” (Cubist Pharmaceuticals, Inc., priority 2013, dated 2015)
# Columns and labels:
# [1] = test system: Eco.2491 (CMY-2, clinical); experiment: Standard BLI potentiation MIC assay; type: cell-based, Eschericia coli; details: read-out: MIC of β-lactam with BLI
# Procedure: The experimental protocol was performed according to Clinical and Laboratory Standards Institute (CLSI) guidelines with modifications as described below (CLSI guidelines can be derived from the CLSI document M07-A9 published in January 2012: “Methods for Dilution Antimicrobial Susceptibility Tests for Bacteria That Grow Aerobically; Approved Standard-Ninth Edition”).
# (§1) To prepare for MIC testing, frozen glycerol stocks of clinical isolates (Klebsiella pneumoniae, Eschericia coli, Enterobacter spp, Citrobacter spp, or Pseudomonas aeruginosa) were used to streak for isolated colonies on rich, non-selective, tryptic soy agar containing 5% sheep's blood (TSAB). Frozen glycerol stocks of laboratory engineered, isogenic E. coli strains, which contain cloned β-lactamase expressing plasmids were used to streak for isolated colonies on rich, selective LB agar supplemented with 25 μg/mL tetracycline to maintain the plasmid. All strains were incubated at 37° C. for 18-24 hrs.
# On the day of testing, primary cultures were started by scraping off 5-10 colonies from the TSAB plates containing clinical strains or the tetracycline supplemented LB plates containing engineered strains. The clinical strain material was suspended in ˜5 mL of cation adjusted Mueller Hinton Broth (CAMHB) in 14 mL culture tubes. The engineered strain material was suspended in CAMHB (supplemented with 25 μg/mL tetracycline) in 14 mL culture tubes. All strains were incubated at 37° C. with aeration (200 rpm) for ˜2 hrs until the optical density at 600 nm (OD600) was ≧0.1.
# (§2) The two compound components of the assay were each diluted in CAMHB and added to the 96-well broth microdilution assay plates. 50 μL of the β-lactam was added to each well of the assay plate in 2-fold dilutions with final concentrations ranging from 128 to 0.13 μg/mL. 25 μL of the BLI compound was added to all wells in the broth microdilution plates at a final concentration of 4 μg/mL. Inoculum cultures were prepared by standardizing the primary cultures to OD600=0.1 and then adding 20 μL of the adjusted primary culture per 1 mL CAMHB for clinical strains or CAMHB (supplemented with tetracycline at 100 μg/mL) for engineered strains, so that the final inoculum density was ˜10^5 colony forming units per milliliter. Diluted inoculum cultures were used to inoculate 25 μL per well in 96-well broth microdilution assay plates. The final volume of each well was 100 μL and contained a β-lactam at different concentrations, a BLlcompound at 4 μg/mL concentration, the bacterial culture at an OD600 of approximately 0.001 and when necessary tetracycline at 25 μg/mL.
# (§3) Plates were incubated for 18-20 hours at 37° C. with aeration (200 rpm). Following incubation, growth was confirmed visually placing plates over a viewing apparatus (stand with a mirror underneath) and then OD600 was measured using a SpectraMax 340PC384 plate reader (Molecular Devices, Sunnyvale, Calif.). Growth was defined as turbidity that could be detected with the naked eye or achieving minimum OD600 of 0.1. MIC values were defined as the lowest concentration producing no visible turbidity.
# Eco isogenic, KPC-2 = experiment: Synergy MIC (sMIC) assay; type: cell-based, E. coli; details: KPC-2, isogenic Eco; CXA-101 at 4 μg/mL
# Procedure: (§4) The synergy MIC (sMIC) assay determines the concentration of the BLI required to potentiate the activity of a fixed concentration of a β-lactam antibiotic against β-lactamase producing bacterial strains. The experimental protocol was performed according to Clinical and Laboratory Standards Institute (CLSI) guidelines with modifications as described below (CLSI guidelines can be derived from the CLSI document M07-A9 published in January 2012: “Methods for Dilution Antimicrobial Susceptibility Tests for Bacteria That Grow Aerobically; Approved Standard-Ninth Edition”). The assay is set-up by serially diluting the BLI across 11 of the 12 wells in each row of a 96-well broth microdilution assay plate, adding the β-lactam at a fixed concentration to all wells in the assay plate, inoculating the assay plate with bacterial strains, and determining the lowest concentration of BLI required to inhibit overnight bacterial growth.
# as §1
# (§5) On the day of testing, primary cultures were started by scraping off 5-10 colonies from the TSAB plates containing clinical strains or the tetracycline supplemented LB plates containing engineered strains. The clinical strain material was suspended in ˜5 mL of cation adjusted Mueller Hinton Broth (CAMHB) in 14 mL culture tubes. The engineered strain material was suspended in CAMHB (supplemented with tetracycline at 25 μg/mL) in 14 mL culture tubes. All strains were incubated at 37° C. with aeration (200 rpm) for ˜2 hrs until the OD600 was ≧0.1.
# as §2, with “prepared” for “diluted”, “BLI” for “β-lactam”, “β-lactam” for “BLI compound”, “isogenic” for “engineered”, “The final volume of each well was 100 μL and contained a β-lactam at different concentrations, a BLlcompound at 4 μg/mL concentration, the bacterial culture at an OD600 of approximately 0.001 and when necessary tetracycline at 25 μg/mL.” left out
# as §3, with “sMIC” for “MIC”, “turbidity. […]” for “turbidity.”
# Eco isogenic, OXA-15 = experiment: Synergy MIC (sMIC) assay; type: cell-based, E. coli; details: OXA-15, isogenic Eco; CXA-101 at 4 μg/mL
# Procedure: as §4, §1, §5
# as §2, with “prepared” for “diluted”, “BLI” for “β-lactam”, “β-lactam” for “BLI compound”, “isogenic” for “engineered”, “The final volume of each well was 100 μL and contained a β-lactam at different concentrations, a BLlcompound at 4 μg/mL concentration, the bacterial culture at an OD600 of approximately 0.001 and when necessary tetracycline at 25 μg/mL.” left out
# as §3, with “sMIC” for “MIC”, “turbidity. […]” for “turbidity.”
# Eco isogenic, P99 = experiment: Synergy MIC (sMIC) assay; type: cell-based, E. coli; details: CXA-101 at 4 μg/mL
# Procedure: as §4, §1, §5
# as §2, with “prepared” for “diluted”, “BLI” for “β-lactam”, “β-lactam” for “BLI compound”, “isogenic” for “engineered”, “The final volume of each well was 100 μL and contained a β-lactam at different concentrations, a BLlcompound at 4 μg/mL concentration, the bacterial culture at an OD600 of approximately 0.001 and when necessary tetracycline at 25 μg/mL.” left out
# as §3, with “sMIC” for “MIC”, “turbidity. […]” for “turbidity.”
# Eco isogenic, CTX-M-15 = experiment: Synergy MIC (sMIC) assay; type: cell-based, E. coli; details: CTX-M-15, isogenic Eco; CXA-101 at 4 μg/mL
# Procedure: as §4, §1, §5
# as §2, with “prepared” for “diluted”, “BLI” for “β-lactam”, “β-lactam” for “BLI compound”, “isogenic” for “engineered”, “The final volume of each well was 100 μL and contained a β-lactam at different concentrations, a BLlcompound at 4 μg/mL concentration, the bacterial culture at an OD600 of approximately 0.001 and when necessary tetracycline at 25 μg/mL.” left out
# as §3, with “sMIC” for “MIC”, “turbidity. […]” for “turbidity.”
# Eco isogenic, SHV-12 = experiment: Synergy MIC (sMIC) assay; type: cell-based, E. coli; details: SHV-12, isogenic Eco; CXA-101 at 4 μg/mL
# Procedure: as §4, §1, §5
# as §2, with “prepared” for “diluted”, “BLI” for “β-lactam”, “β-lactam” for “BLI compound”, “isogenic” for “engineered”, “The final volume of each well was 100 μL and contained a β-lactam at different concentrations, a BLlcompound at 4 μg/mL concentration, the bacterial culture at an OD600 of approximately 0.001 and when necessary tetracycline at 25 μg/mL.” left out
# as §3, with “sMIC” for “MIC”, “turbidity. […]” for “turbidity.”
# Kpn clinical, KPC-2 = experiment: Synergy MIC (sMIC) assay; type: cell-based, Klebsiella pneumoniae; details: KPC-2, clinical Kpn; CXA-101 at 4 μg/mL
# Procedure: The synergy MIC (sMIC) assay determines the concentration of the BLI required to potentiate the activity of a fixed concentration of a β-lactam antibiotic against β-lactamase producing bacterial strains. The experimental protocol was performed according to Clinical and Laboratory Standards Institute (CLSI) guidelines with modifications as described below (CLSI guidelines can be derived from the CLSI document M07-A9 published in January 2012: “Methods for Dilution Antimicrobial Susceptibility Tests for Bacteria That Grow Aerobically; Approved Standard-Ninth Edition”). […]
# as §3, with “sMIC” for “MIC”, “turbidity. […]” for “turbidity.”
structure (smiles),measurement,setting,value
"O=C1N2C[C@@H](CC[C@H]2c2nnco2)N1OS(=O)(=O)[O-].[Na+] [Hydrate 1, sodium (2S,5R)-2-(1,3,4-oxadiazol-2-yl)-7-oxo-1,6-diazabicyclo[3.2.1]octan-6-yl sulfate]",MIC,[1],0.25 to 0.5 µg/mL
same,sMIC,"Eco isogenic, KPC-2",AA (AA = <0.25 μg/mL)
same,sMIC,"Eco isogenic, OXA-15",B (B = 1-2 μg/mL)
same,sMIC,"Eco isogenic, P99",AA (AA = <0.25 μg/mL)
same,sMIC,"Eco isogenic, CTX-M-15",A (A = 0.25-0.5 μg/mL)
same,sMIC,"Eco isogenic, SHV-12",B (B = 1-2 μg/mL)
same,sMIC,"Kpn clinical, KPC-2",C (C = 4-8 μg/mL)
